# How the values were obtained:
# 3T3-L1 preadipocyes = conditions: cited from earlier work
# ST2 cells = test: Osteogenesis of multipotential ST2 cells, Alizarin Red-S staining for mineralization; assay type: cell-based; conditions: 3 μM on days 0 and 2 vs DMSO control; Alizarin Red-S stain on day 10; FIG. 1B
# Method: FIG. 1B. Multipotential ST2 cells were induced to undergo osteogenesis as described (Hankenson and Bornstein 2002). On days 0 and 2, cells were treated with DMSO (control) or 3 μM CHIR99021 6-[(2-{[4-(2,4-dichlorophenyl)-5-(4-methylimidazol-2-yl)pyrimidin-2-yl]amino}ethyl)amino]pyridine-3-carbonitrile (Chiron Corporation, Emeryville, Calif.). On day 10, cells were stained with Alizarin Red-S for mineralization.
structure (smiles),measurement,setting,value
"Cc1c[nH]c(-c2cnc(NCCNc3ccc(C#N)cn3)nc2-c2ccc(Cl)cc2Cl)n1 [CHIR99021, 6-[(2-{[4-(2,4-dichlorophenyl)-5-(4-methylimidazol-2-yl)pyrimidin-2-yl]amino}ethyl)amino]pyridine-3-carbonitrile]",Wnt signaling in vitro,3T3-L1 preadipocyes,mimic Wnt signaling
same,adipocyte conversion,3T3-L1 preadipocyes; in vitro,blocking adipocyte conversion
same,osteoblastogenesis and mineralization of bipotential ST2 cells,ST2 cells,increases osteoblastogenesis and mineralization
